We go through 25 molecules from patent US20060276464A1, “Diarylsulfone sulfonamides and use thereof” (Wyeth, priority 2005, published 2006).

In assay [1] the target is T1, SFRP-1 (Homo sapiens, UniProt Q8N474).
T1 sequence (Q8N474 32-314): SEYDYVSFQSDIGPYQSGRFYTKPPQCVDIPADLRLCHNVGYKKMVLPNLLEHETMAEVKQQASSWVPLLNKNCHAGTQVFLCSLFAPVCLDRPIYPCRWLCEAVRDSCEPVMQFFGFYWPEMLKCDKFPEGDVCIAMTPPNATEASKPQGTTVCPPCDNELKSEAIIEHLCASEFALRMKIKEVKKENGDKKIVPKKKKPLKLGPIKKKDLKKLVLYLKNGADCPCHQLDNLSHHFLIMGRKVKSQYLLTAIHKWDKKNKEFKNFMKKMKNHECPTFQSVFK
Nature of the assay: Fluorescence polarization binding assay (competitive displacement of a probe compound from SFRP-1).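 Note: test compound competes with a fluorescent probe held by SFRP-1, seen as a drop in probe anisotropy after incubation in darkness, with anisotropy as function of rising compound dose.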 To be noted: fluorescence anisotropy, 45 nM SFRP-1, 20 nM probe.

Assay [2] deals with T1, SFRP-1. The assay is described as follows: Cell-based assay for in vitro measurement of SFRP-1/SARP2 antagonist activity (U2OS cells co-transfected with 16x TCF-tk-Luciferase reporter, Wnt and hSFRP-1).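 Note: U2OS cells co-transfected with a TCF-tk luciferase reporter, a Wnt vector, hSFRP-1 or empty vector and CMV-βgal, luciferase luminescence read in cell lysates alongside βgal activity.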 To be noted: U2OS. For orientation: A reporter such as luciferase makes a cellular process visible.
[3] abbreviates: read-out: Fold Induction with SFRP-1, Conc 15 μM, with SFRP-1, fold induction over SFRP-1 control, single dose.
Where [4] appears, read: read-out: Fold Induction without SFRP-1, Conc 15 μM, without SFRP-1, single dose.

Where “and” joins values, the source holds several entries; their conditions need not be identical. Equal values may be shown once. Read-outs that look alike come from different tables or passages of the source.

Molecule `Cc1ccc(S(=O)(=O)c2ccccc2)cc1S(=O)(=O)NC1CCCC1` [Example 399, N-cyclopentyl-2-methyl-5-(phenylsulfonyl)benzenesulfonamide] yielded an IC50 at SFRP-1 [1] of 3000 nM. Also, the fold induction at 15 µM on SFRP-1 [2] (setting [3]) was found to be 2.5; at SFRP-1 [2] (setting [4]), 1.1.

At SFRP-1 [1], `C/C(=N\O)c1ccc(S(=O)(=O)c2ccc(C)c(S(=O)(=O)NC3CCOCC3)c2)cc1` [Example 402, 5-({4-[(1E)-N-hydroxyethanimidoyl]phenyl}sulfonyl)-2-methyl-N-(tetrahydro-2H-pyran-4-yl)benzenesulfonamide] gave an IC50 of 2600 nM. In addition, the values for the fold induction at 15 µM at SFRP-1 [2] (setting [3]) and on SFRP-1 [2] (setting [4]) were 2.5 and 1.1, respectively.

`Cc1ccc(S(=O)(=O)c2ccccc2)cc1S(=O)(=O)NC1CCN(Cc2ccccc2)CC1` [Example 413, N-(1-benzylpiperidin-4-yl)-2-methyl-5-(phenylsulfonyl)benzenesulfonamide]: the 50% inhibitory concentration (IC50) on SFRP-1 [1] is 5000 nM. The fold induction at 15 µM at SFRP-1 [2] (setting [3]) came to 2.2; on SFRP-1 [2] (setting [4]) it was 1.4.

Molecule `CCc1ccc(S(=O)(=O)c2ccc(C)c(S(=O)(=O)NCCc3ccccn3)c2)cc1` [Example 418, 5-[(4-ethylphenyl)sulfonyl]-2-methyl-N-(2-pyridin-2-ylethyl)benzenesulfonamide] came in with an IC50 on SFRP-1 [1] of 1300 nM. For the same molecule, the fold induction at 15 µM at SFRP-1 [2] (setting [3]) came to 2.3; on SFRP-1 [2] (setting [4]), 1.2.

`CCOc1ccccc1S(=O)(=O)c1ccc(C)c(S(=O)(=O)NCCc2ccccn2)c1` [Example 420, 5-[(2-ethoxyphenyl)sulfonyl]-2-methyl-N-(2-pyridin-2-ylethyl)benzenesulfonamide] returned an IC50 on SFRP-1 [1] of 8000 nM. Moreover, the fold induction at 15 µM at SFRP-1 [2] (setting [3]) came to 2.4; on SFRP-1 [2] (setting [4]) it was 1.3.

On to `COc1ccc(OC)c(S(=O)(=O)c2ccc(C)c(S(=O)(=O)NCCc3ccccn3)c2)c1` [Example 421, 5-[(2,5-dimethoxyphenyl)sulfonyl]-2-methyl-N-(2-pyridin-2-ylethyl)benzenesulfonamide], for which the IC50 at SFRP-1 [1] amounted to 9000 nM. The figures for the fold induction at 15 µM at SFRP-1 [2] (setting [3]) and at SFRP-1 [2] (setting [4]) were 2.2 and 1.2, respectively.

In turn, `COc1cccc(S(=O)(=O)c2ccc(C)c(S(=O)(=O)NCCc3ccccn3)c2)c1OC` [Example 422, 5-[(2,3-dimethoxyphenyl)sulfonyl]-2-methyl-N-(2-pyridin-2-ylethyl)benzenesulfonamide] returned an IC50 at SFRP-1 [1] of 2800 nM. Besides, the values for the fold induction at 15 µM on SFRP-1 [2] (setting [3]) and on SFRP-1 [2] (setting [4]) were 1.9 and 1.2, respectively.

With `COc1ccc(S(=O)(=O)c2ccc(C)c(S(=O)(=O)NCCc3ccccn3)c2)c(OC)c1` [Example 423, 5-[(2,4-dimethoxyphenyl)sulfonyl]-2-methyl-N-(2-pyridin-2-ylethyl)benzenesulfonamide], the IC50 on SFRP-1 [1] came to 10000 nM. Besides, the fold induction at 15 µM was 2.4 at SFRP-1 [2] (setting [3]) and 1.1 on SFRP-1 [2] (setting [4]).

For the molecule `CCOC(=O)N1CCC(NS(=O)(=O)c2cc(S(=O)(=O)c3ccccc3)ccc2C)CC1` [Example 425, ethyl 4-({[2-methyl-5-(phenylsulfonyl)phenyl]sulfonyl}amino)piperidine-1-carboxylate], the IC50 on SFRP-1 [1] stood at 2800 nM. Also, the fold induction at 15 µM on SFRP-1 [2] (setting [3]) turned out to be 2.5; at SFRP-1 [2] (setting [4]), 1.2.

`Cc1ccc(S(=O)(=O)c2ccc3[nH]ccc3c2)cc1S(=O)(=O)NCCc1ccccn1` [Example 427, 5-(1H-indol-5-ylsulfonyl)-2-methyl-N-(2-pyridin-2-ylethyl)benzenesulfonamide] showed a half-maximal inhibitory concentration (IC50) on SFRP-1 [1] of 1100 nM. Moreover, the fold induction at 15 µM was 2 at SFRP-1 [2] (setting [3]) and 0.9 on SFRP-1 [2] (setting [4]).

At SFRP-1 [1], `CC(C)c1ccc(S(=O)(=O)c2ccc(C(C)(C)C)cc2)cc1S(=O)(=O)NCCc1ccccn1` [Example 435, 5-[(4-tert-butylphenyl)sulfonyl]-2-isopropyl-N-(2-pyridin-2-ylethyl)benzenesulfonamide] registered a 50% inhibitory concentration (IC50) of 2600 nM. Also, the fold induction at 15 µM is 1.7 on SFRP-1 [2] (setting [3]) and 1 on SFRP-1 [2] (setting [4]).

Molecule `CC(C)c1ccc(S(=O)(=O)c2ccc(C(C)(C)C)cc2)cc1S(=O)(=O)NCCCn1ccnc1` [Example 436, 5-[(4-tert-butylphenyl)sulfonyl]-N-[3-(1H-imidazol-1-yl)propyl]-2-isopropylbenzenesulfonamide] displayed a half-inhibitory concentration (IC50) on SFRP-1 [1] of 1000 nM. The values for the fold induction at 15 µM at SFRP-1 [2] (setting [3]) and at SFRP-1 [2] (setting [4]) were 2.2 and 1, respectively.

With `CC(C)c1ccc(S(=O)(=O)c2ccc(C(C)(C)C)cc2)cc1S(=O)(=O)NC1CCOCC1` [Example 437, 5-[(4-tert-butylphenyl)sulfonyl]-2-isopropyl-N-(tetrahydro-2H-pyran-4-yl)benzenesulfonamide], the half-inhibitory concentration (IC50) at SFRP-1 [1] was 5000 nM. The figures for the fold induction at 15 µM on SFRP-1 [2] (setting [3]) and at SFRP-1 [2] (setting [4]) were 2.2 and 1, respectively.

In the case of `Cc1ccc(S(=O)(=O)c2ccc(C(C)(C)C)cc2)cc1S(=O)(=O)NCCCn1ccnc1` [Example 439, 5-[(4-tert-butylphenyl)sulfonyl]-N-[3-(1H-imidazol-1-yl)propyl]-2-methylbenzenesulfonamide], the concentration for half-maximal inhibition (IC50) at SFRP-1 [1] was determined as 2000 nM. The figures for the fold induction at 15 µM at SFRP-1 [2] (setting [3]) and at SFRP-1 [2] (setting [4]) were 2 and 0.9, respectively.

`Cc1ccc(S(=O)(=O)c2ccc(C(C)(C)C)cc2)cc1S(=O)(=O)NC1CCOCC1` [Example 440, 5-[(4-tert-butylphenyl)sulfonyl]-2-methyl-N-(tetrahydro-2H-pyran-4-yl)benzenesulfonamide]: the IC50 at SFRP-1 [1] came to 3000 nM. Moreover, the figures for the fold induction at 15 µM at SFRP-1 [2] (setting [3]) and at SFRP-1 [2] (setting [4]) were 1.8 and 1.1, respectively.

`CC(C)c1ccc(S(=O)(=O)c2ccc(F)cc2)cc1S(=O)(=O)NCCc1c[nH]cn1` [Example 442, 5-[(4-fluorophenyl)sulfonyl]-N-[2-(1H-imidazol-4-yl)ethyl]-2-isopropylbenzenesulfonamide] yielded a concentration for half-maximal inhibition (IC50) at SFRP-1 [1] of 1000 nM. Moreover, the fold induction at 15 µM on SFRP-1 [2] (setting [3]) is 3.9; at SFRP-1 [2] (setting [4]), 1.

On SFRP-1 [1], `CC(C)c1ccc(S(=O)(=O)c2ccc(F)cc2)cc1S(=O)(=O)NC[C@H](C)c1ccccc1` [Example 443, 5-[(4-fluorophenyl)sulfonyl]-2-isopropyl-N-[(2R)-2-phenylpropyl]benzenesulfonamide] displayed a 50% inhibitory concentration (IC50) of 600 nM. Further, the fold induction at 15 µM on SFRP-1 [2] (setting [3]) stood at 2.5; at SFRP-1 [2] (setting [4]), 1.1.

With `CC(C)c1ccc(S(=O)(=O)c2ccc(F)cc2)cc1S(=O)(=O)NCC1CCOCC1` [Example 445, 5-[(4-fluorophenyl)sulfonyl]-2-isopropyl-N-(tetrahydro-2H-pyran-4-ylmethyl)benzenesulfonamide], on SFRP-1 [1], the half-maximal inhibitory concentration (IC50) was determined as 1100 nM. Further, the fold induction at 15 µM on SFRP-1 [2] (setting [3]) was determined as 2.9; at SFRP-1 [2] (setting [4]), 1.2.

At SFRP-1 [1], `Cc1ccc(S(=O)(=O)c2ccccc2)cc1S(=O)(=O)NC1CCN(C(=O)OC(C)(C)C)CC1` [Example 446, tert-butyl 4-({[2-methyl-5-(phenylsulfonyl)phenyl]sulfonyl}amino)piperidine-1-carboxylate] showed an IC50 of 2000 nM. For the same molecule, the fold induction at 15 µM at SFRP-1 [2] (setting [3]) is 2.3; at SFRP-1 [2] (setting [4]), 1.1.

As to `Cc1ccc(S(=O)(=O)c2ccccc2)cc1S(=O)(=O)NC1CCN(S(=O)(=O)c2ccccc2)CC1` [Example 448, 2-methyl-5-(phenylsulfonyl)-N-[1-(phenylsulfonyl)piperidin-4-yl]benzenesulfonamide], at SFRP-1 [1], the concentration for half-maximal inhibition (IC50) was 120 nM and 170 nM. In addition, the results for the fold induction at 15 µM on SFRP-1 [2] (setting [3]) and on SFRP-1 [2] (setting [4]) were 2 and 1.2, respectively.

The molecule `Cc1ccc(S(=O)(=O)c2ccccc2)cc1S(=O)(=O)NC1CCN(C(=O)c2ccco2)CC1` [Example 449, N-[1-(2-furoyl)piperidin-4-yl]-2-methyl-5-(phenylsulfonyl)benzenesulfonamide] returned an IC50 at SFRP-1 [1] of 3000 nM. Also, the values for the fold induction at 15 µM on SFRP-1 [2] (setting [3]) and on SFRP-1 [2] (setting [4]) were 2.8 and 1.1, respectively.

On to `CC(C)c1ccc(S(=O)(=O)c2ccc(NCCC#N)cc2)cc1S(=O)(=O)NCCn1ccnc1` [Example 450, 5-({4-[(2-cyanoethyl)amino]phenyl}sulfonyl)-N-[2-(1H-imidazol-1-yl)ethyl]-2-isopropylbenzenesulfonamide], for which the IC50 at SFRP-1 [1] was 400 nM and 200 nM and 300 nM. Moreover, the fold induction at 15 µM was 4 on SFRP-1 [2] (setting [3]) and 1 at SFRP-1 [2] (setting [4]).

The molecule `CCC(O)CNc1ccc(S(=O)(=O)c2ccc(C(C)C)c(S(=O)(=O)NCCn3ccnc3)c2)cc1` (stereo not drawn) [Example 452, 5-({4-[(2-hydroxybutyl)amino]phenyl}sulfonyl)-N-[2-(1H-imidazol-1-yl)ethyl]-2-isopropylbenzenesulfonamide] displayed a 50% inhibitory concentration (IC50) on SFRP-1 [1] of 200 nM. Besides, the figures for the fold induction at 15 µM at SFRP-1 [2] (setting [3]) and on SFRP-1 [2] (setting [4]) were 3.8 and 1, respectively.

On to `CC[C@H](C)C(CO)Nc1ccc(S(=O)(=O)c2ccc(C(C)C)c(S(=O)(=O)NCCn3ccnc3)c2)cc1` (stereo partly drawn) [Example 453, 5-[(4-{[(2S)-1-(hydroxymethyl)-2-methylbutyl]amino}phenyl)sulfonyl]-N-[2-(1H-imidazol-1-yl)ethyl]-2-isopropylbenzenesulfonamide], for which the IC50 at SFRP-1 [1] was 300 nM. In addition, the fold induction at 15 µM at SFRP-1 [2] (setting [3]) was 4; at SFRP-1 [2] (setting [4]), 1.1.

`CC(C)c1ccc(S(=O)(=O)c2cccc(Cl)c2)cc1S(=O)(=O)NCCc1ccccn1` [Example 455, 5-[(3-chlorophenyl)sulfonyl]-2-isopropyl-N-(2-pyridin-2-ylethyl)benzenesulfonamide] showed a concentration for half-maximal inhibition (IC50) on SFRP-1 [1] of 500 nM. Further, the figures for the fold induction at 15 µM at SFRP-1 [2] (setting [3]) and on SFRP-1 [2] (setting [4]) were 3.2 and 1, respectively.

In general, IC50 refers to the concentration at which inhibition is half-maximal. Low values mean greater potency in that assay, high ones weaker potency in that assay.
